Where “and” joins values, the source holds several entries; their conditions need not be identical. Equal values may be shown once. Read-outs that look alike come from different tables or passages of the source.
Key:
[1] = tested on: SFTSV; conditions: read-out: IC50 against SFTSV; cited from earlier work
[2] = in vitro; conditions: African green monkey
[3] = tested on: SFTSV; assay: microbe, parasite or virus in culture; assay type: cell-based; conditions: for IC50: Severe fever with thrombocytopenia syndrome virus
[4] = tested on: SFTSV; assay type: cell-based, Severe fever with thrombocytopenia syndrome virus
[5] = tested on: SFTSV; assay type: cell-based, Severe fever with thrombocytopenia syndrome virus; remark: listed apart in the source
[6] = tested on: SFTSV; assay type: cell-based, Severe fever with thrombocytopenia syndrome virus; remark: listed apart in the source
[7] = tested on: SFTSV; assay type: cell-based, Severe fever with thrombocytopenia syndrome virus; conditions: pH 5
[8] = tested on: SFTSV; assay type: cell-based, Severe fever with thrombocytopenia syndrome virus; remark: listed apart in the source
[9] = tested on: SFTSV; assay: microbe, parasite or virus in culture; assay type: cell-based

Row | SMILES | IC50 [1] | CC50 [2] | IC99 [3] | Selectivity Index (CC50/IC50) [3] | IC50 [3] | further results
1 | CCN(CC)Cc1cc(Nc2ccnc3cc(Cl)ccc23)ccc1O [amodiaquine] | 19.1 µM | – | – | – | – | –
2 | NC(=O)c1ncn([C@@H]2O[C@H](CO)[C@@H](O)[C@H]2O)n1 [ribavirin] | 40.1 µM | – | – | – | – | –
3 | O=C(O)/C=C/c1ccc(O)c(O)c1 [caffeic acid] | 180 µM | – | – | – | – | –
4 | Oc1cc(Cl)ccc1Oc1ccc(Cl)cc1Cl [Triclosan, triclosan] | – | 17.7 ± 2.9 µM | 8.5 ± 2.1 µM | 5.5 | 3.2 ± 0.4 µM | –
5 | NC(=O)c1nc(F)c[nH]c1=O [favipiravir] | 25 µM | – | – | – | – | fold read-out between drug-treated and DMSO-treated groups by ELISA [4]: > 10 fold and > 15 fold; intracellular viral RNA load vs DMSO, drug co-mixed with SFTSV [5]: no statistically significant difference; difference in SFTSV RNA load between drug-treated and DMSO-treated groups [3]: approximately 4 log10
6 | CC1=NN(c2ccc(C)c(C)c2)C(=O)/C1=N\Nc1cccc(-c2cccc(C(=O)O)c2)c1O [Eltrombopag, eltrombopag] | – | 18.4 ± 0.2 µM | 10.3 ± 3.4 µM | 4.5 | 4.1 ± 0.2 µM | –
7 | CNC(=O)c1cc(Oc2ccc(NC(=O)Nc3ccc(Cl)c(C(F)(F)F)c3)c(F)c2)ccn1 [Regorafenib, regorafenib] | – | 31.3 ± 0.5 µM | 11.3 ± 0.5 µM | 7.0 | 4.5 ± 0.5 µM | –
8 | Oc1c(Cl)cc(Cl)c(Cl)c1Cc1c(O)c(Cl)cc(Cl)c1Cl [Hexachlorophene, hexachlorophene] | – | 24.3 ± 3.2 µM | 7.5 ± 1.2 µM | 18.7 | 1.3 ± 0.3 µM | inhibitory activity on virus attachment, cells pretreated with drug [6]: no significant; syncytium formation in SFTSV-infected cells [7]: dramatically inhibited; virus infectivity after pre-incubation of SFTSV with drug [8]: not significantly; intracellular viral RNA load vs DMSO, drug co-mixed with SFTSV [5]: Significantly lower viral RNA load; IC50 ([3]; read-out: IC50 against SFTSV): 1.3 to 2.6 µM; plaque reduction [9]: 100%; IC50 ([9]; Severe fever with thrombocytopenia syndrome virus, Vero, read-out: IC50, plaque reduction assay): 2.6 ± 0.14 µM
9 | Oc1c(Br)cc(Br)c2cccnc12 [Broxyquinoline, broxyquinoline] | – | 36.4 ± 5.5 µM | 16.3 ± 4.3 µM | 6.3 | 5.8 ± 1.3 µM | –
10 | Nc1ccn([C@@H]2O[C@H](CO)[C@@H](O)[C@H]2F)c(=O)n1 [2′-fluoro-2′-deoxycytidine] | 3.7 µM | – | – | – | – | –
